From patent publication US20240287052A1, “NOVEL OXAZOLE DERIVATIVE AND PHARMACEUTICAL COMPOSITION FOR PREVENTING OR TREATING ALLERGIC DISEASES COMPRISING THE SAME” (AZCURIS CO., LTD., priority 2021, published 2024)
Read-outs that look alike come from different tables or passages of the source.

Biological target: T1, IL33 and ST2 binding (Homo sapiens, UniProt O95760)
T1 sequence (O95760 112-270 limits assumed): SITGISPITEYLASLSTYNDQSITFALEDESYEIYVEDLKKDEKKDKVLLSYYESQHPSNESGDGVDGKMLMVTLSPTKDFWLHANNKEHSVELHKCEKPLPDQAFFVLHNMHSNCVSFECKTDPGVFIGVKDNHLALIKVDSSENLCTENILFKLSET
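Also: plate ELISA with coated Flag-tagged human IL-33 and His-tagged human ST2, bound ST2 detected by anti-His HRP and TMB absorbance at 450 nm, 2 h compound incubation.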

| inhibition (30 µM) [%] | inhibition (100 µM) [%] | SMILES |
| --- | --- | --- |
| 18 | 29 | COCCNC(=O)c1nc(-c2ccc(C(F)(F)F)cc2)oc1-c1ccccc1[N+](=O)[O-] [Compound 160, N-(2-Methoxyethyl)-5-(2-nitrophenyl)-2-(4-(trifluoromethyl)phenyl)oxazole-4-carboxamide] |
| 9 | 4 | O=C(NCc1ccccc1)c1nc(-c2ccc(C(F)(F)F)cc2)oc1-c1ccccc1[N+](=O)[O-] [Compound 164, N-Benzyl-5-(2-nitrophenyl)-2-(4-(trifluoromethyl)phenyl)oxazole-4-carboxamide] |
| 14 | 5 | COc1ccc(CNC(=O)c2nc(-c3ccc(C(F)(F)F)cc3)oc2-c2ccccc2[N+](=O)[O-])cc1 [Compound 166, N-(4-Methoxybenzyl)-5-(2-nitrophenyl)-2-(4-(trifluoromethyl)phenyl)oxazole-4-carboxamide] |
| -24 | -9 | CC(C)N(CCN1CCN(C(=O)c2nc(-c3ccc(C(F)(F)F)cc3)oc2-c2ccccc2[N+](=O)[O-])CC1)C(C)C [Compound 167, (4-(2-(Diisopropylamino)ethyl)piperazin-1-yl)(5-(2-nitrophenyl)-2-(4-(trifluoromethyl)phenyl)oxazol-4-yl)methanone] |
| 51 | 50 | CC(C)(C)OC(=O)N1CCN(CCNC(=O)c2nc(-c3ccc(C(F)(F)F)cc3)oc2-c2ccccc2[N+](=O)[O-])CC1 [Compound 172, tert-Butyl-4-(2-(5-(2-nitrophenyl)-2-(4-(trifluoromethyl)phenyl)oxazole-4-carboxamido)ethyl)piperazine-1-carboxylate] |
| 7 | 2 | CN(C)CCNC(=O)c1nc(-c2cccc(OC(F)(F)F)c2)oc1-c1ccccc1 [Compound 199, N-(2-(Dimethylamino)ethyl)-5-phenyl-2-(3-(trifluoromethoxy)phenyl)oxazole-4-carboxamide] |
| -7 | -5 | CN(C)CCNC(=O)c1nc(-c2cccc(OC(F)(F)F)c2)oc1-c1ccccc1[N+](=O)[O-] [Compound 201, N-(2-(Dimethylamino)ethyl)-5-(2-nitrophenyl)-2-(3-(trifluoromethoxy)phenyl)oxazole-4-carboxamide] |
| -11 | 4 | CN(C)CCNC(=O)c1nc(-c2ccc(OC(F)(F)F)cc2)oc1-c1ccccc1[N+](=O)[O-] [Compound 205, N-(2-(Dimethylamino)ethyl)-5-(2-nitrophenyl)-2-(4-(trifluoromethoxy)phenyl)oxazole-4-carboxamide] |
| 13 | 20 | COc1cccc(-c2nc(C(=O)NCCN3CCN(C)CC3)c(-c3ccccc3[N+](=O)[O-])o2)c1 [Compound 211, 2-(3-methoxyphenyl)-N-(2-(4-methylpiperazin-1-yl)ethyl)-5-(2-nitrophenyl)oxazole-4-carboxamide] |
| -34 | -9 | COc1ccc(-c2nc(C(=O)NCCN3CCN(C)CC3)c(-c3ccccc3)o2)cc1 [Compound 213, 2-(4-Methoxyphenyl)-N-(2-(4-methylpiperazin-1-yl)ethyl)-5-phenyloxazole-4-carboxamide] |
| -28 | -49 | COc1ccc(-c2nc(C(=O)NCCN(C)C)c(-c3ccccc3[N+](=O)[O-])o2)cc1 [Compound 214, N-(2-(Dimethylamino)ethyl)-2-(4-methoxyphenyl)-5-(2-nitrophenyl)oxazole-4-carboxamide] |
| -12 | 33 | COc1ccc(-c2nc(C(=O)NCCN3CCN(C)CC3)c(-c3ccccc3[N+](=O)[O-])o2)cc1 [Compound 215, 2-(4-Methoxyphenyl)-N-(2-(4-methylpiperazin-1-yl)ethyl)-5-(2-nitrophenyl)oxazole-4-carboxamide] |

The remaining lines, values behind:

| SMILES | inhibition (30 µM) [%] | inhibition (100 µM) [%] |
| --- | --- | --- |
| O=C(NCCCN1CCOCC1)c1nc(-c2ccc(C(F)(F)F)cc2)oc1-c1ccccc1[N+](=O)[O-] [Compound 157, N-(3-Morpholinopropyl)-5-(2-nitrophenyl)-2-(4-(trifluoromethyl)phenyl)oxazole-4-carboxamide] | 22 | 15 |
| O=C(NCC1CCCO1)c1nc(-c2ccc(C(F)(F)F)cc2)oc1-c1ccccc1[N+](=O)[O-] (centres unmarked) [Compound 159, 5-(2-Nitrophenyl)-N-((tetrahydrofuran-2-yl)methyl)-2-(4-(trifluoromethyl)phenyl)oxazole-4-carboxamide] | 2 | -1 |
| O=C(c1nc(-c2ccc(C(F)(F)F)cc2)oc1-c1ccccc1[N+](=O)[O-])N1CCC(O)CC1 [Compound 161, (4-Hydroxypiperidin-1-yl)(5-(2-nitrophenyl)-2-(4-(trifluoromethyl)phenyl)oxazol-4-yl)methanone] | -16 | -11 |
| O=C(c1ccc(N2CCCCC2)cc1)c1nc(-c2ccc(C(F)(F)F)cc2)oc1-c1ccccc1[N+](=O)[O-] [Compound 162, (5-(2-Nitrophenyl)-2-(4-(trifluoromethyl)phenyl)oxazol-4-yl)(4-(piperidin-1-yl)phenyl)methanone] | 3 | 5 |
| CCOC(=O)N1CCN(C(=O)c2nc(-c3ccc(C(F)(F)F)cc3)oc2-c2ccccc2[N+](=O)[O-])CC1 [Compound 163, Ethyl 4-(5-(2-nitrophenyl)-2-(4-(trifluoromethyl)phenyl)oxazole-4-carbonyl)piperazine-1-carboxylate] | -30 | -19 |
| O=C(Nc1ccc(OCc2ccccc2)cc1)c1nc(-c2ccc(C(F)(F)F)cc2)oc1-c1ccccc1[N+](=O)[O-] [Compound 165, N-(4-(Benzyloxy)phenyl)-5-(2-nitrophenyl)-2-(4-(trifluoromethyl)phenyl)oxazole-4-carboxamide] | 10 | 13 |
| CC(C)N1CCN(C(=O)c2nc(-c3ccc(C(F)(F)F)cc3)oc2-c2ccccc2[N+](=O)[O-])CC1 [Compound 168, (4-Isopropylpiperazin-1-yl)(5-(2-nitrophenyl)-2-(4-(trifluoromethyl)phenyl)oxazol-4-yl)methanone] | 12 | -12 |
| O=C(c1nc(-c2ccc(C(F)(F)F)cc2)oc1-c1ccccc1[N+](=O)[O-])N1CCN(CCO)CC1 [Compound 169, (4-(2-Hydroxyethyl)piperazin-1-yl)(5-(2-nitrophenyl)-2-(4-(trifluoromethyl)phenyl)oxazol-4-yl)methanone] | -4 | 7 |
| O=C(c1nc(-c2ccc(C(F)(F)F)cc2)oc1-c1ccccc1[N+](=O)[O-])N1CCN(CCN2CCCC2)CC1 [Compound 170, (5-(2-Nitrophenyl)-2-(4-(trifluoromethyl)phenyl)oxazol-4-yl)(4-(2-(pyrrolidin-1-yl)ethyl)piperazin-1-yl)methanone] | 3 | 2 |
| O=C(NCCN1CCCCC1)c1nc(-c2ccc(C(F)(F)F)cc2)oc1-c1ccccc1[N+](=O)[O-] [Compound 173, 5-(2-Nitrophenyl)-N-(2-(piperidin-1-yl)ethyl)-2-(4-(trifluoromethyl)phenyl)oxazole-4-carboxamide] | 54 | 60 |
| CC(=O)Nc1ccc(NC(=O)c2nc(-c3ccc(C(F)(F)F)cc3)oc2-c2ccccc2[N+](=O)[O-])cc1 [Compound 175, N-(4-Acetamidophenyl)-5-(2-nitrophenyl)-2-(4-(trifluoromethyl)phenyl)oxazole-4-carboxamide] | 27 | 53 |
| O=C(NCCc1ccc(O)cc1)c1nc(-c2ccc(C(F)(F)F)cc2)oc1-c1ccccc1[N+](=O)[O-] [Compound 176, N-(4-Hydroxyphenethyl)-5-(2-nitrophenyl)-2-(4-(trifluoromethyl)phenyl)oxazole-4-carboxamide] | 27 | 36 |
| CN1CCN(CCNC(=O)c2nc(-c3cccc(OC(F)(F)F)c3)oc2-c2ccccc2)CC1 [Compound 200, N-(2-(4-Methylpiperazin-1-yl)ethyl)-5-phenyl-2-(3-(trifluoromethoxy)phenyl)oxazole-4-carboxamide] | 5 | 0 |
| CN1CCN(CCNC(=O)c2nc(-c3cccc(OC(F)(F)F)c3)oc2-c2ccccc2[N+](=O)[O-])CC1 [Compound 202, N-(2-(4-Methylpiperazin-1-yl)ethyl)-5-(2-nitrophenyl)-2-(3-(trifluoromethoxy)phenyl)oxazole-4-carboxamide] | 7 | 32 |
| CN1CCN(CCNC(=O)c2nc(-c3ccc(OC(F)(F)F)cc3)oc2-c2ccccc2)CC1 [Compound 204, N-(2-(4-Methylpiperazin-1-yl)ethyl)-5-phenyl-2-(4-(trifluoromethoxy)phenyl)oxazole-4-carboxamide] | 1 | 36 |
| CN1CCN(CCNC(=O)c2nc(-c3ccc(OC(F)(F)F)cc3)oc2-c2ccccc2[N+](=O)[O-])CC1 [Compound 206, N-(2-(4-methylpiperazin-1-yl)ethyl)-5-(2-nitrophenyl)-2-(4-(trifluoromethoxy)phenyl)oxazole-4-carboxamide] | 23 | 49 |
| COc1cccc(-c2nc(C(=O)NCCN(C)C)c(-c3ccccc3)o2)c1 [Compound 208, N-(2-(Dimethylamino)ethyl)-2-(3-methoxyphenyl)-5-phenyloxazole-4-carboxamide] | 19 | 55 |
| COc1cccc(-c2nc(C(=O)NCCN(C)C)c(-c3ccccc3[N+](=O)[O-])o2)c1 [Compound 210, N-(2-(Dimethylamino)ethyl)-2-(3-methoxyphenyl)-5-(2-nitrophenyl)oxazole-4-carboxamide] | -11 | -19 |
| COc1ccc(-c2nc(C(=O)NCCN(C)C)c(-c3ccccc3)o2)cc1 [Compound 212, N-(2-(Dimethylamino)ethyl)-2-(4-methoxyphenyl)-5-phenyloxazole-4-carboxamide] | -26 | -22 |
